We go through 20 compounds from patent publication US10143681B2, “Factor XIa inhibitors” (MERCK SHARP & DOHME CORP., priority 2016, dated 2018).

For assay [1], the system named is Human plasma (intrinsic coagulation cascade). Description: Activated Partial Thromboplastin Time (aPTT) Assay. As to conditions: concentration that causes a 50% (1.5×) increase of clot time over vehicle. The method, then:
Activated partial thromboplastin time (aPTT) is a clotting test that measures the intrinsic coagulation cascade. The test is performed in sodium citrated plasma. Human plasma is made by collecting blood from healthy donors of both genders into Na citrate tubes (Sarstedt coagulation 9NC/10 ml). Blood is centrifuged at 1500×g and the plasma is collected. aPTT is checked on each individual donor and those within the normal range (28-40 seconds) are pooled, aliquoted, and stored at −80 C. Test samples are prepared by spiking inhibitors or vehicle into plasma. These spiked samples are then run on a coagulation analyzer (STA-R Evolution, Stago Diagnostica). In general, the analyzer performs the following steps: Factor XII is activated by addition of ellagic acid (Pacific Hemostasis), and then time to clot is measured after re-calcification of the sample. Inhibition of FXI will cause aPTT clot time to be prolonged. The data is expressed as percent increase over vehicle control clot time and the concentration that causes a 50% (1.5×) percent increase of clot time are reported.

A further assay has as its target human Factor XIa (Homo sapiens (Human), UniProt P03951). Description: Factor XIa Assay. It is filed as biochemical. The settings on record: for IC50: human Factor XIa 0.04 nM, 30 min pre-incubation at 25° C., substrate GPR-AFC, read-out: FXIa IC50; for inhibition at 1 µM: read-out: FXIa % Inh. @ 1000 nM. The method, then:
The effectiveness of a compound of the present invention as an inhibitor of Coagulation Factor XIa can be determined using a relevant purified serine protease, and an appropriate synthetic substrate. The rate of hydrolysis of the chromogenic or fluorogenic substrate by the relevant serine protease was measured both in the absence and presence of compounds of the present invention. Assays were conducted at room temperature or at 37° C. […] A decrease in the rate of fluorescence change in the presence of inhibitor is indicative of enzyme inhibition. Such methods are known to one skilled in the art. The results of this assay are expressed as the half-maximal inhibitory concentrations (IC50), or the inhibitory constant, Ki.
Compounds were pre-incubated for 30 minutes at 25° C. with human (0.04 nM) Factor XIa in 50 mM HEPES buffer with 150 mM sodium chloride, 5 mM calcium chloride, 0.1% PEG 8000, pH 7.4. Factor XIa enzymatic activity was determined by addition of the substrate glycine-proline-arginine-7-amido-4-trifluoromethylcoumarin (GPR-AFC) and measurement of the fluorescence at 400/505 nm after a 60 minute incubation at 25° C. The % inhibition for each data point was calculated from the data and analyzed using the log (inhibitor) vs. response four parameters equation to determine the half-maximal inhibitory concentrations (IC50). The IC50 were converted to equilibrium inhibitory constants (Ki) using the Cheng-Prusoff equation.

The structures appear in SMILES notation.

Sequence of human Factor XIa (P03951 388-625): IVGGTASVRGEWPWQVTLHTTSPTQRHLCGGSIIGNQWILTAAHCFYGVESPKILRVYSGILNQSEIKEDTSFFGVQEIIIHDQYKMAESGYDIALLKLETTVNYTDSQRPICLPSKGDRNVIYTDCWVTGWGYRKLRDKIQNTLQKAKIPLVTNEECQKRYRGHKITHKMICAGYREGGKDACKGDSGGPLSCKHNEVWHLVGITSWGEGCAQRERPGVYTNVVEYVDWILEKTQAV
Sequence of human Factor XIa (P03951 19-387 partner): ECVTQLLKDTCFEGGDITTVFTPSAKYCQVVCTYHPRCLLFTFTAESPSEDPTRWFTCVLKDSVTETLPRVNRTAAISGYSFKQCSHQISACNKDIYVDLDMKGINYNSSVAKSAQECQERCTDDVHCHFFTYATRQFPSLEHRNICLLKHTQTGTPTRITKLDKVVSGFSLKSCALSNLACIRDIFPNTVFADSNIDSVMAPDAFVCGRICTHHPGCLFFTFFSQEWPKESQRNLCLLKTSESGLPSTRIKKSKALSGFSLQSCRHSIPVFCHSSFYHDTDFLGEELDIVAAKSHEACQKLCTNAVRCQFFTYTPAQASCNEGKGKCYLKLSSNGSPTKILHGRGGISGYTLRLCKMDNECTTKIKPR

Consider `O=C(O)c1ccc(NC(=O)[C@@H](CC2CCC2)c2ccc(-c3c(C(F)F)ccc(Cl)c3F)c[n+]2[O-])cc1` (mixture of isomers) [Example 4, (S)- and (R)-2-(1-((4-Carboxyphenyl)amino)-3-cyclobutyl-1-oxopropan-2-yl)-5-(3-chloro-6-(difluoromethyl)-2-fluorophenyl)pyridine 1-oxide], for which the “aPTT (1.5x)” value in assay [1] was found to be 0.55 µM.
The same measure, in the same setting: the value for `O=C(O)c1ccc(NC(=O)[C@@H](CC2CC2)c2ccc(-c3c(C(F)F)ccc(Cl)c3F)c[n+]2[O-])cc1` (mixture of isomers) [Example 23, (S)- and (R)-2-(1-((4-carboxyphenyl)amino)-3-cyclopropyl-1-oxopropan-2-yl)-5-(3-chloro-6-(difluoromethyl)-2-fluorophenyl)pyridine 1-oxide] was 0.61 µM; that for `CC1(O)CC(CC(C(=O)Nc2ccc(C(=O)O)cc2)c2ccc(-c3c(C(F)F)ccc(Cl)c3F)c[n+]2[O-])C1` (single isomer, unassigned) [Example 83, 2-(1-((4-carboxyphenyl)amino)-3-(3-hydroxy-3-methylcyclobutyl)-1-oxopropan-2-yl)-5-(3-chloro-6-(difluoromethyl)-2-fluorophenyl)pyridine 1-oxide] was 0.62 µM; that for `CC1(O)CC(CC(C(=O)Nc2ccc(C(=O)O)cc2)c2ccc(-c3c(C(F)F)ccc(Cl)c3F)c[n+]2[O-])C1` (single isomer, unassigned) [Example 85, 2-(1-((4-carboxyphenyl)amino)-3-(3-hydroxy-3-methylcyclobutyl)-1-oxopropan-2-yl)-5-(3-chloro-6-(difluoromethyl)-2-fluorophenyl)pyridine 1-oxide] was 1 µM.
`O=C(O)c1ccc(NC(=O)C(CC2CC2C(F)(F)F)c2ccc(-c3c(C(F)F)ccc(Cl)c3F)c[n+]2[O-])cc1` (single isomer, unassigned) [Example 86, 2-(1-((4-carboxyphenyl)amino)-1-oxo-3-(2-(trifluoromethyl)cyclopropyl)propan-2-yl)-5-(3-chloro-6-(difluoromethyl)-2-fluorophenyl)pyridine 1-oxide]: the IC50 on human Factor XIa was 0.0936 µM.
Regarding `O=C(O)c1ccc(NC(=O)C(CC2CC(F)C2)c2ccc(-c3c(OC(F)F)ccc(Cl)c3F)c[n+]2[O-])cc1` (single isomer, unassigned) [Example 101, 2-(1-((4-carboxyphenyl)amino)-3-(3-fluorocyclobutyl)-1-oxopropan-2-yl)-5-(3-chloro-6-(difluoromethoxy)-2-fluorophenyl)pyridine 1-oxide], at human Factor XIa (@ 1000 nM compound), the inhibition at 1 µM stood at 44%.
On to `CC1CCC1CC(C(=O)Nc1ccc(C(=O)O)cc1)c1ccc(-c2c(OC(F)F)ccc(Cl)c2F)c[n+]1[O-]` (single isomer, unassigned) [Example 103, 2-(1-((4-carboxyphenyl)amino)-3-(2-methylcyclobutyl)-1-oxopropan-2-yl)-5-(3-chloro-6-(difluoromethoxy)-2-fluorophenyl)pyridine 1-oxide], for which the IC50 at human Factor XIa came to 0.153 µM.
`CC1CCC1CC(C(=O)Nc1ccc(C(=O)O)cc1)c1ccc(-c2c(OC(F)F)ccc(Cl)c2F)c[n+]1[O-]` (single isomer, unassigned) [Example 104, 2-(1-((4-carboxyphenyl)amino)-3-(2-methylcyclobutyl)-1-oxopropan-2-yl)-5-(3-chloro-6-(difluoromethoxy)-2-fluorophenyl)pyridine 1-oxide]: the inhibition at 1 µM on human Factor XIa (@ 1000 nM compound) worked out at 37%. Besides, on human Factor XIa, the IC50 was determined as 1 µM.
As for `CC1CCC1CC(C(=O)Nc1ccc(C(=O)O)cc1)c1ccc(-c2c(OC(F)F)ccc(Cl)c2F)c[n+]1[O-]` (single isomer, unassigned) [Example 106, 2-(1-((4-carboxyphenyl)amino)-3-(2-methylcyclobutyl)-1-oxopropan-2-yl)-5-(3-chloro-6-(difluoromethoxy)-2-fluorophenyl)pyridine 1-oxide], the IC50 on human Factor XIa was found to be 0.00379 µM.
For the compound `O=C(O)c1ccc(NC(=O)C(CC2CC2C(F)(F)F)c2ccc(-c3c(OC(F)F)ccc(Cl)c3F)c[n+]2[O-])cc1` (single isomer, unassigned) [Example 110, 2-(1-((4-carboxyphenyl)amino)-1-oxo-3-(2-(trifluoromethyl)cyclopropyl)propan-2-yl)-5-(3-chloro-6-(difluoromethoxy)-2-fluorophenyl)pyridine 1-oxide], the inhibition at 1 µM at human Factor XIa (@ 1000 nM compound) stood at 29%.
`CC1(C)CC1CC(C(=O)Nc1ccc(C(=O)O)cc1)c1ccc(-c2c(OC(F)F)ccc(Cl)c2F)c[n+]1[O-]` (single isomer, unassigned) [Example 111, 2-(1-((4-carboxyphenyl)amino)-3-(2,2-dimethylcyclopropyl)-1-oxopropan-2-yl)-5-(3-chloro-6-(difluoromethoxy)-2-fluorophenyl)pyridine 1-oxide]: at human Factor XIa, the IC50 was 0.157 µM.
On to `COC(=O)c1ccc(NC(=O)C(CC2CC2)c2ccc(-c3c(C(F)F)ccc(Cl)c3F)c[n+]2[O-])cc1` (single isomer, unassigned) [Example 113, 5-(3-chloro-6-(difluoromethyl)-2-fluorophenyl)-2-(3-cyclopropyl-1-((4-(methoxycarbonyl)phenyl)amino)-1-oxopropan-2-yl)pyridine 1-oxide], for which the “FXIa % Inh. @ 1000 nM” value at human Factor XIa (@ 1000 nM compound) turned out to be 6%. Further, at human Factor XIa, the IC50 was determined as 1 µM.
As to `CCOC(=O)c1ccc(NC(=O)C(CC2CC2)c2ccc(-c3c(C(F)F)ccc(Cl)c3F)c[n+]2[O-])cc1` (single isomer, unassigned) [Example 115, 5-(3-chloro-6-(difluoromethyl)-2-fluorophenyl)-2-(3-cyclopropyl-1-((4-(ethoxycarbonyl)phenyl)amino)-1-oxopropan-2-yl)pyridine 1-oxide], the inhibition at 1 µM on human Factor XIa (@ 1000 nM compound) was 0%.
Regarding `O=C(O)c1ccc(NC(=O)C(CC2CC2)c2ccc(-c3c(C(F)F)ccc(Cl)c3F)c[n+]2[O-])cc1F` (single isomer, unassigned) [Example 117, 2-(1-((4-carboxy-3-fluorophenyl)amino)-3-cyclopropyl-1-oxopropan-2-yl)-5-(3-chloro-6-(difluoromethyl)-2-fluorophenyl)pyridine 1-oxide], the IC50 on human Factor XIa turned out to be 0.0584 µM.
Take `Cc1cc(NC(=O)C(CC2CC2)c2ccc(-c3c(C(F)F)ccc(Cl)c3F)c[n+]2[O-])ccc1C(=O)O` (single isomer, unassigned) [Example 121, 2-(1-((4-carboxy-3-methylphenyl)amino)-3-cyclopropyl-1-oxopropan-2-yl)-5-(3-chloro-6-(difluoromethyl)-2-fluorophenyl)pyridine 1-oxide]: the IC50 on human Factor XIa was found to be 0.62 µM.
Still for that read-out and setting: the value for `O=C(O)c1ccc(NC(=O)C(CC23CC(C2)C3)c2ccc(-c3c(C(F)F)ccc(Cl)c3F)c[n+]2[O-])cc1F` (single isomer, unassigned) [Example 123, 2-(3-(bicyclo[1.1.1]pentan-1-yl)-1-((4-carboxy-3-fluorophenyl)amino)-1-oxopropan-2-yl)-5-(3-chloro-6-(difluoromethyl)-2-fluorophenyl)pyridine 1-oxide] was 0.0247 µM; that for `CCOC(=O)c1ccc(NC(=O)[C@H](CC2CCC2)c2ccc(-c3c(C(F)F)ccc(Cl)c3F)c[n+]2[O-])cc1` [Example 5, (R)-5-(3-chloro-6-(difluoromethyl)-2-fluorophenyl)-2-(3-cyclobutyl-1-((4-(ethoxycarbonyl)phenyl)amino)-1-oxopropan-2-yl)pyridine 1-oxide] was 0.166 µM.
With `O=C(O)c1ccc(NC(=O)[C@@H](CC2CC2)c2ccc(-c3c(OCC4CC4)ccc(Cl)c3F)c[n+]2[O-])cc1` [Example 12, (S)-4-[(2-{5-[3-chloro-6-(cyclopropylmethoxy)-2-fluorophenyl]-1-oxidopyridin-2-yl}-3-cyclopropylpropanoyl)amino] benzoic acid], the inhibition at 1 µM on human Factor XIa (@ 1000 nM compound) is 35%. Besides, the IC50 on human Factor XIa was over 1 µM.
For `Cc1cc(C(CC2CC2)C(=O)Nc2ccc(C(=O)O)cc2)[n+]([O-])cc1-c1c(OC(F)F)ccc(Cl)c1F` [Example 66, (S)- and (R)-2-(1-((4-carboxyphenyl)amino)-3-cyclopropyl-1-oxopropan-2-yl)-5-(3-chloro-6-(difluoromethoxy)-2-fluorophenyl)-4-methylpyridine 1-oxide] the same measures were 34% and over 1 µM.
For `Cc1cc(C(CC2CC2)C(=O)Nc2ccc(C(=O)O)cc2)[n+]([O-])cc1-c1c(OC(F)F)ccc(Cl)c1F` [Example 67, (S)- and (R)-2-(1-((4-carboxyphenyl)amino)-3-cyclopropyl-1-oxopropan-2-yl)-5-(3-chloro-6-(difluoromethoxy)-2-fluorophenyl)-4-methylpyridine 1-oxide], the IC50 on human Factor XIa stood at 0.011 µM.

Usually IC50 stands for the midpoint of a concentration-inhibition curve.
